For orientation: AC50 means the concentration giving half of the maximal activity seen. Usually IC50 stands for the midpoint of a concentration-inhibition curve.

57 molecules from patent US10167270B2, “Substituted quinazoline compounds and uses thereof for modulating glucocerebrosidase activity” (Northwestern University, priority 2015, dated 2019) can be followed below.

One experiment deals with Glucocerebrosidase (Homo sapiens (Human), UniProt P04062). In words: Glucocerebrosidase activity assay with blue substrate (4MU-Glc). The class given is biochemical.
Sequence of Glucocerebrosidase (P04062 40-536): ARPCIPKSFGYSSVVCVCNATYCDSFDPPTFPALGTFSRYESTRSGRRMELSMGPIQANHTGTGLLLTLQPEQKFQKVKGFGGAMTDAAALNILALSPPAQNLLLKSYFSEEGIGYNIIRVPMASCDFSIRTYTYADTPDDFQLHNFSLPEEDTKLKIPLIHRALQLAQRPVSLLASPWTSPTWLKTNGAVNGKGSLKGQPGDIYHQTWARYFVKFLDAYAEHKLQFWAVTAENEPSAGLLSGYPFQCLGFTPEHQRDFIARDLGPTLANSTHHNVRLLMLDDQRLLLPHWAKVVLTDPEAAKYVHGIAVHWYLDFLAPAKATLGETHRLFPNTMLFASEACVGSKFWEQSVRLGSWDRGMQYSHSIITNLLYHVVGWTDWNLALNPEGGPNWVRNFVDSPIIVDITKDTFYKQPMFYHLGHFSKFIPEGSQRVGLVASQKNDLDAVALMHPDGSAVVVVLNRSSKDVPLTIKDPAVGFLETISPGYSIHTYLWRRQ
Settings: not given
The method, then: The compounds in DMSO solution 0.5 μL/well were transferred to a black 96-well plate. The final titration was 24 nM to 50 μM, 12 concentrations, 2 times dilution. […] After 5 min of incubation at room temperature, the enzyme reaction was initiated by the addition of 33 μL/well blue substrate. Final concentrations of the blue substrate (4MU-Glc) was 1.5 mM. The blue substrate reaction was terminated by the addition of 33 μL/well stop solution (1 M NaOH and 1 M glycine mixture, pH 10) after 30 min of incubation at 37° C. The fluorescence was then measured in the Biotek Synergy H1 multi-mode plate reader with Ex=365 nm and Em=440 nm.
Additional compounds were prepared and tested according to the procedures provided in the examples above.
Additional substituted quinazoline compounds were prepared and tested according to the procedures provided in the examples above.
For the molecule `CN(CCCCCCCCCCN(C)c1nc(-c2cccnc2)nc2ccccc12)c1nc(-c2cccnc2)nc2ccccc12` [compound 112], the “Activity AC50 or IC50 (activator)” value was “Weak activator”.

The same experiment, now with this note: direction not given.
In the case of `CN(CCOc1ccccc1)c1nc(-c2cccs2)nc2ccccc12` [compound 125], the “Activity AC50 or IC50” value is recorded as “Inactive”.
Same read-out and setting: then `CN(CCOc1ccccc1)c1nc(-c2cccc(F)c2)nc2ccccc12` [compound 132], with “Inactive”.

Still in this experiment, the particulars now being: marked (act), activator, AC50.
Take `CN1CCN(c2ccc(C(=O)N3CCN(c4nc(-c5cccnc5)nc5ccccc45)CC3)cc2)CC1` [compound 38]: the “IC50 or AC50 (act)” value is recorded as “Weak (act)”.
As to `c1ccc(C2CCCN(c3nc(-c4cccnc4)nc4ccccc34)C2)cc1` (stereo not drawn) [compound 82], the “IC50 or AC50 (act)” value is recorded as “Weak (act)”.
Consider `Nc1nc(-c2cccnc2)nc2ccccc12` [compound 35], for which the “IC50 or AC50 (act)” value is listed as “Weak (act)”.
On the same count and under the same terms, with `c1ccc(Nc2nc(-c3cccnc3)nc3ccccc23)cc1` [compound 50] the entry was “Weak (act)”.

The same experiment, now with this note: marked (act), activator, AC50; read-out: IC50 or AC50 (act).
For the molecule `CN(Cc1nc2ccccc2[nH]1)c1nc(-c2cccnc2)nc2ccccc12` [compound 15], the AC50 was 8910 nM.
On the same count and under the same terms, with `c1cncc(-c2nc(NCCc3c[nH]c4ccccc34)c3ccccc3n2)c1` [compound 72] the figure was 1280 nM.

The experiment is the same for the next values; noted with them: marked (inh), inhibitor.
Consider `CN(c1nc(-c2cccnc2)nc2ccccc12)[C@@H]1CCc2ccccc2C1` [compound 88], for which the “IC50 or AC50 (inh)” value is recorded as “Weak (inh)”.

The same experiment, now with this note: marked (inh), inhibitor; read-out: IC50 or AC50 (inh).
`c1cncc(-c2nc(NC3CC3)c3ccccc3n2)c1` [compound 42]: the IC50 worked out at 39800 nM.
Still for that read-out and setting: with `c1cncc(CCNc2nc(-c3cccnc3)nc3ccccc23)c1` [compound 70] the figure was 5010 nM.
The same measure, in the same setting: then `c1cncc(-c2nc(NCC3CCCCC3)c3ccccc3n2)c1` [compound 57], with 354 nM; and `c1ccc(CN2CCC(Nc3nc(-c4cccnc4)nc4ccccc34)CC2)cc1` [compound 44], with 31600 nM.
Still for that read-out and setting: then `CN(c1nc(-c2cccnc2)nc2ccccc12)[C@H]1CCc2ccccc2C1` [compound 84], with 500 nM; and `CC1CCCCC1Nc1nc(-c2cccnc2)nc2ccccc12` (stereo not drawn) [compound 48], with 89 nM; and `c1cncc(-c2nc(NC3CC4CCC3C4)c3ccccc3n2)c1` (stereo not drawn) [compound 78], with 355 nM.
On to `Ic1ccc2c(c1)CC(Nc1nc(-c3cccnc3)nc3ccccc13)C2` (stereo not drawn) [compound 89], for which the IC50 worked out at 168 nM.
The same measure, in the same setting: with `c1cncc(-c2nc(NC3CCCCCCC3)c3ccccc3n2)c1` [compound 76] the figure was 28 nM; with `CC1CCC(Nc2nc(-c3cccnc3)nc3ccccc23)CC1` (stereo not drawn) [compound 77], 20 nM.
Same read-out and setting: then `c1ccc(CCCNc2nc(-c3cccnc3)nc3ccccc23)cc1` [compound 52], with 1780 nM; and `c1cncc(-c2nc(NCC3COc4ccccc4O3)c3ccccc3n2)c1` (stereo not drawn) [compound 20], with 7940 nM.
Regarding `c1cncc(-c2nc(NC3CCCC3)c3ccccc3n2)c1` [compound 39], the IC50 stood at 790 nM.
For the molecule `c1cncc(-c2nc(NC3Cc4ccccc4C3)c3ccccc3n2)c1` [compound 1], the IC50 was determined as 7 nM.
Regarding `c1ccc(CCNc2nc(-c3cccnc3)nc3ccccc23)cc1` [compound 60], the IC50 was 112 nM.
Still for that read-out and setting: then `c1cncc(-c2nc(NC3CCCCCC3)c3ccccc3n2)c1` [compound 58], with 63 nM; and `c1cncc(-c2nc(NC3CCC3)c3ccccc3n2)c1` [compound 43], with 4470 nM; and `c1cncc(-c2nc(NC3CCc4ccccc43)c3ccccc3n2)c1` (stereo not drawn) [compound 67], with 891 nM.
On the same count and under the same terms, with `c1ccc(CCCCNc2nc(-c3cccnc3)nc3ccccc23)cc1` [compound 53] the figure was 1580 nM.
Turning to `CC1(C)CCC(Nc2nc(-c3cccnc3)nc3ccccc23)CC1` [compound 85], the IC50 worked out at 460 nM.
Same read-out and setting: with `c1cncc(-c2nc(NC3CCCc4ccccc43)c3ccccc3n2)c1` (stereo not drawn) [compound 68] the figure was 1120 nM; with `Cc1ccc(CCNc2nc(-c3cccnc3)nc3ccccc23)cc1` [compound 73], 1780 nM; with `c1cncc(-c2nc(NC34CC5CC(CC(C5)C3)C4)c3ccccc3n2)c1` [compound 79], 1120 nM.
On to `c1ccc(CNc2nc(-c3cccnc3)nc3ccccc23)cc1` [compound 51], for which the IC50 came out at 7080 nM.
On to `c1cncc(-c2nc(N3CCNCC3)c3ccccc3n2)c1` [compound 23], for which the IC50 was 35500 nM.
Same read-out and setting: with `Fc1cccc(CCNc2nc(-c3cccnc3)nc3ccccc23)c1` [compound 55] the figure was 141 nM; with `CN(c1nc(-c2cccnc2)nc2ccccc12)C1Cc2ccccc2C1` [compound 2], 2150 nM.
The same measure, in the same setting: then `c1cncc(-c2nc(NC3CCCCC3)c3ccccc3n2)c1` [compound 40], with 177 nM.

The same experiment, now with this note: marked activator, AC50.
`CN(c1nc(-c2cccnc2)nc2ccccc12)C1CCCCCCC1` [compound 123]: the “Activity AC50 or IC50 (activator)” value is reported as “Weak activator”.
The same measure, in the same setting: then `c1cncc(-c2nc(N3CCCOCC3)c3ccccc3n2)c1` [compound 116], with “Weak activator”; and `CN(CCOc1ccc(C#CCOCCOCCNc2nc(-c3cccnc3)nc3ccccc23)cc1)c1nc(-c2cccnc2)nc2ccccc12` [compound 110], with “Weak activator”; and `CN(CCOc1ccccc1)c1nc(-c2ccccn2)nc2ccccc12` [compound 143], with “Weak activator”.

The experiment is the same for the next values; noted with them: marked activator, AC50; read-out: Activity AC50 or IC50 (activator).
With `CN(CCCc1ccccc1)c1nc(-c2cccnc2)nc2ccccc12` [compound 119], the AC50 came out at 5010 nM.
Still for that read-out and setting: with `c1cncc(-c2nc(N3CCc4c([nH]c5ccccc45)C3)c3ccccc3n2)c1` [compound 94] the figure was 2820 nM.

Staying with this experiment, now noted: marked inhibitor, nM indicated; read-out: Activity AC50 or IC50 (inhibitor).
For `CC(C)(C)OC(=O)NCCCCCC(=O)Nc1ccc(-c2nc(NC3Cc4ccccc4C3)c3ccccc3n2)cc1` [compound 145], the IC50 is 5.6 nM.
For the molecule `NCCCCCC(=O)Nc1ccc(-c2nc(NC3Cc4ccccc4C3)c3ccccc3n2)cc1` [compound 147], the IC50 was 7.5 nM.
In the case of `O=C(CCCC[C@@H]1SC[C@@H]2NC(=O)N[C@@H]21)NCCOCCOCCOCCOCCC(=O)NCCCCCC(=O)Nc1ccc(-c2nc(NC3Cc4ccccc4C3)c3ccccc3n2)cc1` [compound 156], the IC50 amounted to 1.95 nM.

Staying with this experiment, now noted: marked inhibitor; read-out: Activity AC50 or IC50 (inhibitor).
`c1ccc(OCCCNc2nc(-c3cccnc3)nc3ccccc23)cc1` [compound 91]: the IC50 was determined as 2820 nM.
The same measure, in the same setting: with `CC(COc1ccccc1)Nc1nc(-c2cccnc2)nc2ccccc12` (stereo not drawn) [compound 97] the figure was 2510 nM.
Consider `CCCCCCCCNc1nc(-c2cccnc2)nc2ccccc12` [compound 95], for which the IC50 was 2240 nM.
Same read-out and setting: then `CC(C)(C)OC(=O)NCCC#Cc1ccc2c(c1)CC(Nc1nc(-c3cccnc3)nc3ccccc13)C2` (stereo not drawn) [compound 96], with 560 nM.
Still for that read-out and setting: with `c1ccc(COCCNc2nc(-c3cccnc3)nc3ccccc23)cc1` [compound 140] the figure was 11200 nM.
The same measure, in the same setting: with `Nc1ccc(-c2nc(NC3Cc4ccccc4C3)c3ccccc3n2)cc1` [compound 142] the figure was 7.1 nM; with `c1cncc(-c2nc(NCCCCCCCCCCNc3nc(-c4cccnc4)nc4ccccc34)c3ccccc3n2)c1` [compound 108], 141 nM.
In the case of `NCCC#Cc1ccc2c(c1)CC(Nc1nc(-c3cccnc3)nc3ccccc13)C2` (stereo not drawn) [compound 99], the IC50 is 891 nM.
As to `CC(CNc1nc(-c2cccnc2)nc2ccccc12)Oc1ccccc1` (stereo not drawn) [compound 92], the IC50 came out at 5010 nM.
Same read-out and setting: with `Oc1ccc2c(c1)C[C@@H](Nc1nc(-c3cccnc3)nc3ccccc13)CC2` [compound 98] the figure was 79 nM.
